Drawing on patent US20260216196A1, “IMIDAZO[1,2-A]PYRIDINE AND IMIDAZO[1,2-A]PYRAZINE DERIVATIVES AS MLLT1 AND MLLT3 INHIBITORS” (DARK BLUE THERAPEUTICS LTD., priority 2022, published 2026), this text covers IC50 for 29 compounds.

In assay [1] the target is MLLT3 (Homo sapiens, UniProt P42568). In words: HTRF IC50 determination assay, MLLT3 / H3K9cro peptide displacement. Particulars: MLLT3 assay IC50 (nM), 6His tagged MLLT3, biotinylated H3K9cro peptide, compound 20 μM to 20 nM, 11 data points in duplicate.
MLLT3, sequence (P42568 whole entry): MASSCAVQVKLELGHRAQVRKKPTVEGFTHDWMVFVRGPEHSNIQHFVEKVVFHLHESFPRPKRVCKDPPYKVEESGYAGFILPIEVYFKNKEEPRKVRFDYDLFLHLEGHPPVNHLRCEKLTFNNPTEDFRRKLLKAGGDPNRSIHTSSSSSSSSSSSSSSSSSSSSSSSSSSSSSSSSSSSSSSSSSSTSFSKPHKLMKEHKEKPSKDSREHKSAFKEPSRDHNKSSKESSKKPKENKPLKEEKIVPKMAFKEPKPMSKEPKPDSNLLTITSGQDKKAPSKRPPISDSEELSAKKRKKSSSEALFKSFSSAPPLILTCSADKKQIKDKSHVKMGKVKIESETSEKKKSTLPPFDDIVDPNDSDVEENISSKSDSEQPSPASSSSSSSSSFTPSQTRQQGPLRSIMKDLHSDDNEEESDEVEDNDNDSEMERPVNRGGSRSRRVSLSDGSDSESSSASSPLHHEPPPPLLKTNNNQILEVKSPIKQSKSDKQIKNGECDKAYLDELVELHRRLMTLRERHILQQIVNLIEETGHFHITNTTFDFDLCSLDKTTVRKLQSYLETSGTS
In assay [2] the target is MLLT1 (Homo sapiens, UniProt Q03111). Briefly: biochemical. Particulars: MLLT1 assay IC50 (nM), HTRF, 6His tagged MLLT1, biotinylated H3K9cro peptide; compound 20 μM to 20 nM, 11 data points in duplicate.
MLLT1, sequence (Q03111 whole entry): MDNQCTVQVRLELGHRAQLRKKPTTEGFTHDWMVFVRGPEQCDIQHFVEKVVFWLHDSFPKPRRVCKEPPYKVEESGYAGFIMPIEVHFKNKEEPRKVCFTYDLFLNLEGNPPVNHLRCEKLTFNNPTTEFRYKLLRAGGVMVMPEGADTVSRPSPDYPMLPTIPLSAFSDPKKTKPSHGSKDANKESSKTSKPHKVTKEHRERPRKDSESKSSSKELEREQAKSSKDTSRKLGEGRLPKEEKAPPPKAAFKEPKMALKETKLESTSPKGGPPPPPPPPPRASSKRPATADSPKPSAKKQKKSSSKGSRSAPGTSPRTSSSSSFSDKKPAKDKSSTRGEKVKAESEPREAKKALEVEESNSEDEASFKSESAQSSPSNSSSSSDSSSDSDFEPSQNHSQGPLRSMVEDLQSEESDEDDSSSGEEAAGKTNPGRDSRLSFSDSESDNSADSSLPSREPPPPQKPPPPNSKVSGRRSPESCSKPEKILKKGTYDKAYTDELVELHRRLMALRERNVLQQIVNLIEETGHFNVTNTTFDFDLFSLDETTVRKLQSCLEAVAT

Counter-ions that a name gives are not always drawn.

As for `COc1cc(NC(=O)c2ccc3c(C)nn(C)c3c2)cn2cc(C3CCCN3C)nc12` (racemic) [Example 1, rac-N-[8-methoxy-2-(1-methylpyrrolidin-2-yl)imidazo[1,2-a]pyridin-6-yl]-1,3-dimethyl-indazole-6-carboxamide], the half-maximal inhibitory concentration (IC50) in assay [1] and in assay [2] was 150 to 1500 nM in each case. With `CN1CCOCC1c1cn2cc(NC(=O)c3ccc4c(cnn4C)c3)ccc2n1` (racemic) [Example 2, rac-1-methyl-N-[2-(4-methylmorpholin-3-yl)imidazo[1,2-a]pyridin-6-yl]indazole-5-carboxamide], the IC50 in assay [1] and in assay [2] was 1500 to 20000 nM throughout.

`CN1CC2(CCCC2)CC1c1cn2cc(NC(=O)c3ccc4c(cnn4C)c3)ccc2n1` (racemic) [Example 3, rac-1-methyl-N-(2-{2-methyl-2-azaspiro[4.4]nonan-3-yl}imidazo[1,2-a]pyridin-6-yl)indazole-5-carboxamide]: the IC50 in assay [1] and in assay [2] was 150 to 1500 nM each time. With `CN1CCCC1(C)c1cn2cc(NC(=O)c3ccc4c(cnn4C)c3)ccc2n1` (racemic) [Example 4, rac-N-[2-(1,2-dimethylpyrrolidin-2-yl)imidazo[1,2-a]pyridin-6-yl]-1-methylindazole-5-carboxamide], the IC50 fell in the range of 1500 to 20000 nM in assay [1] and 150 to 1500 nM in assay [2]. Consider `CN1CCCC1c1cn2cc(NC(=O)c3cnc4cc(Cl)ccc4c3)ccc2n1` (racemic) [Example 9, rac-7-chloro-N-[2-(1-methylpyrrolidin-2-yl)imidazo[1,2-a]pyridin-6-yl]quinoline-3-carboxamide], for which the IC50 in assay [1] and in assay [2] was 1500 to 20000 nM in each case. Turning to `CN1CCCC1c1cn2cc(NC(=O)c3ccc4ncccc4n3)ccc2n1` (racemic) [Example 10, rac-N-[2-(1-methylpyrrolidin-2-yl)imidazo[1,2-a]pyridin-6-yl]-1,5-naphthyridine-2-carboxamide], the IC50 is above 20000 nM in assay [1] and 1500 to 20000 nM in assay [2]. With `Cc1nc2ccc(C(=O)Nc3ccc4nc(C5CCCN5C)cn4c3)cc2nc1C` (racemic) [Example 11, rac-2,3-dimethyl-N-[2-(1-methylpyrrolidin-2-yl)imidazo[1,2-a]pyridin-6-yl]quinoxaline-6-carboxamide], the IC50 in assay [1] and in assay [2] was 150 to 1500 nM in each case. For `CN1CCCC1c1cn2cc(NC(=O)c3ccc(-n4cncn4)cc3)ccc2n1` (racemic) [Example 12, rac-N-[2-(1-methylpyrrolidin-2-yl)imidazo[1,2-a]pyridin-6-yl]-4-(1H-1,2,4-triazol-1-yl)benzamide], the IC50 in assay [1] is 1500 to 20000 nM; in assay [2], 150 to 1500 nM. For the compound `CN1CCCC1c1cn2cc(NC(=O)c3ccc(-n4cccn4)nc3)ccc2n1` (racemic) [Example 13, rac-N-[2-(1-methylpyrrolidin-2-yl)imidazo[1,2-a]pyridin-6-yl]-6-(1H-pyrazol-1-yl)pyridine-3-carboxamide], the IC50 in assay [1] and in assay [2] was 1500 to 20000 nM in each case. Consider `Cc1nn(C)c2cc(C(=O)Nc3ccc4nc(C5CCCN5C)cn4c3)ccc12` (racemic) [Example 14, rac-1,3-dimethyl-N-[2-(1-methylpyrrolidin-2-yl)imidazo[1,2-a]pyridin-6-yl]-1H-indazole-6-carboxamide], for which the IC50 in assay [1] and in assay [2] was 150 to 1500 nM each time. With `Cc1nn(C)c2ncc(C(=O)Nc3ccc4nc(C5CCCN5C)cn4c3)c(Cl)c12` (racemic) [Example 15, rac-4-chloro-1,3-dimethyl-N-[2-(1-methylpyrrolidin-2-yl)imidazo[1,2-a]pyridin-6-yl]-1H-pyrazolo[3,4-b]pyridine-5-carboxamide], the IC50 in assay [1] and in assay [2] was 1500 to 20000 nM in each case. In the case of `Cc1nc(-c2ccc(C(=O)Nc3ccc4nc(C5CCCN5C)cn4c3)cc2)cs1` (racemic) [Example 16, rac-4-(2-methyl-1,3-thiazol-4-yl)-N-[2-(1-methylpyrrolidin-2-yl)imidazo[1,2-a]pyridin-6-yl]benzamide], the IC50 in assay [1] and in assay [2] was 150 to 1500 nM throughout.

In the case of `COc1ccc2nc(C(=O)Nc3ccc4nc(C5CCCN5C)cn4c3)sc2c1` (racemic) [Example 17, rac-6-methoxy-N-[2-(1-methylpyrrolidin-2-yl)imidazo[1,2-a]pyridin-6-yl]-1,3-benzothiazole-2-carboxamide], the IC50 in assay [1] and in assay [2] was 1500 to 20000 nM throughout.

`Cc1nn(C)c2sc(C(=O)Nc3ccc4nc(C5CCCN5C)cn4c3)cc12` (racemic) [Example 18, rac-1,3-dimethyl-N-[2-(1-methylpyrrolidin-2-yl)imidazo[1,2-a]pyridin-6-yl]-1H-thieno[2,3-c]pyrazole-5-carboxamide]: the IC50 in assay [1] and in assay [2] was 1500 to 20000 nM throughout. For the compound `Cc1noc2cc(C(=O)Nc3ccc4nc(C5CCCN5C)cn4c3)ccc12` (racemic) [Example 29, rac-3-methyl-N-[2-(1-methylpyrrolidin-2-yl)imidazo[1,2-a]pyridin-6-yl]-1,2-benzoxazole-6-carboxamide], the IC50 in assay [1] and in assay [2] was 1500 to 20000 nM each time. On to `Cc1nn(C)c2cc(C(=O)Nc3ccc4nc(C5CCCN5C)cn4c3)c(F)cc12` (racemic) [Example 30, rac-5-fluoro-1,3-dimethyl-N-[2-(1-methylpyrrolidin-2-yl)imidazo[1,2-a]pyridin-6-yllindazole-6-carboxamide], for which the IC50 in assay [1] and in assay [2] was 150 to 1500 nM throughout. `Cc1nn(C)c2nc(C(=O)Nc3ccc4nc(C5CCCN5C)cn4c3)ccc12` (racemic) [Example 31, rac-1,3-dimethyl-N-[2-(1-methylpyrrolidin-2-yl)imidazo[1,2-a]pyridin-6-yl]-1H-pyrazolo[3,4-b]pyridine-6-carboxamide]: the IC50 in assay [1] and in assay [2] was 1500 to 20000 nM in each case.

As to `CN1CCCC1c1cn2cc(NC(=O)c3ccn4ccnc4c3)ccc2n1` (racemic) [Example 32, rac-N-[2-(1-methylpyrrolidin-2-yl)imidazo[1,2-a]pyridin-6-yl]imidazo[1,2-a]pyridine-7-carboxamide], the IC50 in assay [1] lay in the range of 1500 to 20000 nM; in assay [2], 150 to 1500 nM. With `CN1CCCC1c1cn2cc(NC(=O)c3ccn4cnnc4c3)ccc2n1` (racemic) [Example 33, rac-N-[2-(1-methylpyrrolidin-2-yl)imidazo[1,2-a]pyridin-6-yl]-[1,2,4]triazolo[4,3-alpyridine-7-carboxamide], the IC50 in assay [1] lay within 1500 to 20000 nM; in assay [2], 150 to 1500 nM. For `CN1CCCC1c1cn2cc(NC(=O)c3cn4ccncc4n3)ccc2n1` (racemic) [Example 34, rac-N-[2-(1-methylpyrrolidin-2-yl)imidazo[1,2-a]pyridin-6-yl]imidazo[1,2-a]pyrazine-2-carboxamide] the same measures were 1500 to 20000 nM and 1500 to 20000 nM. Regarding `CCc1nnc2cc(C(=O)Nc3ccc4nc(C5CCCN5C)cn4c3)ccn12` (racemic) [Example 35, rac-3-ethyl-N-[2-(1-methylpyrrolidin-2-yl)imidazo[1,2-a]pyridin-6-yl]-[1,2,4]triazolo[4,3-a]pyridine-7-carboxamide formate], the IC50 in assay [1] and in assay [2] was 1500 to 20000 nM throughout.

As for `CN1CCCC1c1cn2cc(NC(=O)c3ccc4nc[nH]c4n3)ccc2n1` (racemic) [Example 36, rac-N-[2-(1-methylpyrrolidin-2-yl)imidazo[1,2-a]pyridin-6-yl]-3H-imidazo[4,5-b]pyridine-5-carboxamide], the IC50 in assay [1] was above 20000 nM; in assay [2] it was 1500 to 20000 nM. With `CN1CCCC1c1cn2cc(NC(=O)c3ccc4ncoc4c3)ccc2n1` (racemic) [Example 37, rac-N-[2-(1-methylpyrrolidin-2-yl)imidazo[1,2-a]pyridin-6-yl]-1,3-benzoxazole-6-carboxamide], the IC50 was in the range of 1500 to 20000 nM in assay [1] and 150 to 1500 nM in assay [2].

Turning to `COc1ccc(-c2nc(C(=O)Nc3ccc4nc(C5CCCN5C)cn4c3)cs2)cc1` (racemic) [Example 38, rac-2-(4-methoxyphenyl)-N-[2-(1-methylpyrrolidin-2-yl)imidazo[1,2-a]pyridin-6-yl]-1,3-thiazole-4-carboxamide], the IC50 in assay [1] and in assay [2] was 1500 to 20000 nM in each case. With `CCc1nn(C)c2ccc(C(=O)Nc3ccc4nc(C5CCCN5C)cn4c3)cc12` (racemic) [Example 61, rac-3-ethyl-1-methyl-N-[2-(1-methylpyrrolidin-2-yl)imidazo[1,2-a]pyridin-6-yl]-1H-indazole-5-carboxamide], the IC50 in assay [1] lay in the range of 150 to 1500 nM. `CCC1CC(c2cn3cc(NC(=O)c4ccc5c(C)nn(C)c5c4)ncc3n2)N(C)C1` (single isomer, unassigned) [Example 77, N-{2-[4-ethyl-1-methylpyrrolidin-2-yl]imidazo[1,2-a]pyrazin-6-yl}-1,3-dimethyl-1H-indazole-6-carboxamide] had a half-inhibitory concentration (IC50) in assay [1] of 1500 to 20000 nM. Take `CCC1CC(c2cn3cc(NC(=O)c4ccc5c(C)nn(C)c5c4)ncc3n2)N(C)C1` (single isomer, unassigned) [Example 78, N-{2-[4-ethyl-1-methylpyrrolidin-2-yl]imidazo[1,2-a]pyrazin-6-yl}-1,3-dimethyl-1H-indazole-6-carboxamide]: the IC50 in assay [1] was 150 to 1500 nM.

Regarding `CCC1CC(c2cn3cc(NC(=O)c4ccc5c(C)nn(C)c5c4)ncc3n2)N(C)C1` (single isomer, unassigned) [Example 79, N-{2-[4-ethyl-1-methylpyrrolidin-2-yl]imidazo[1,2-a]pyrazin-6-yl}-1,3-dimethyl-1H-indazole-6-carboxamide], the IC50 in assay [1] is below 150 nM.

In assay [1], `CCC1CC(c2cn3cc(NC(=O)c4ccc5c(C)nn(C)c5c4)ncc3n2)N(C)C1` (single isomer, unassigned) [Example 80, N-{2-[4-ethyl-1-methylpyrrolidin-2-yl]imidazo[1,2-a]pyrazin-6-yl}-1,3-dimethyl-1H-indazole-6-carboxamide] returned a half-maximal inhibitory concentration (IC50) below 150 nM.

A word on the IC50: it is the point on the concentration scale where inhibition reaches its midpoint.
